Assay results reported in ChEMBL document CHEMBL5321216, “Discovery of bipyridine amide derivatives targeting pRXRα-PLK1 interaction for anticancer therapy” (Eur J Med Chem, 2023).
Activity calls are given as the source filed them. The calls are words filed in the database; no cut-off is given here.

Columns and labels:
[1] = Selectivity index, ratio of IC50 for human A549 cells to IC50 for human MDA-MB-231 cells; assay type: functional
[2] = system: MDA-MB-231; experiment: Induction of cell cycle arrest in human MDA-MB-231 cells assessed as accumulation of cells at G1 phase at 15.625 nM incubated for 12 hrs by flow cytometry analysis (reference value: 43.2%); assay type: functional; conditions: 0.01562 µM
[3] = system: A549; experiment: Induction of apoptosis in human A549 cells assessed as dead cells at 31.25 nM incubated for 24 hrs by annexin V-FITC/PI staining based flow cytometry analysis (reference value: 0.75%); assay type: functional
[4] = system: MDA-MB-231; experiment: Induction of RXRalpha-mediated mitotic arrest in human MDA-MB-231 cells assessed as accumulation of pRXRalpha protein at 7.8 to 500 nM measured after 24 hrs by Western blot analysis; assay type: functional, cell-based; conditions: dose 7.8-500 nM
[5] = system: A549; experiment: Induction of apoptosis in human A549 cells assessed as late apoptotic cells at 250 nM incubated for 24 hrs by annexin V-FITC/PI staining based flow cytometry analysis (reference value: 5.28%); assay type: functional
[6] = system: MDA-MB-231; experiment: Antitumor activity against human MDA-MB-231 cells xenografted in BALB/c nude mouse assessed as inhibition of tumor growth by measuring mitotic arrest at 12.5 to 25 mg/kg/day, ip administered for 15 days; assay type: functional, organism-based; conditions: dose 12.5-25 mg/kg/day, time 15.0 day
[7] = system: NCI-H460; experiment: Antiproliferative activity against human NCI-H460 cells assessed as inhibition of cell proliferation incubated for 72 hrs by MTT assay; assay type: functional, cell-based; conditions: NCI-H460, 72 h
[8] = system: HepG2; experiment: Antiproliferative activity against human HepG2 cells assessed as inhibition of cell proliferation incubated for 72 hrs by MTT assay; assay type: functional, cell-based; conditions: HepG2, 72 h
[9] = system: HepG2; experiment: Antiproliferative activity against human HepG2 cells assessed as cell viability rate at 5 uM incubated for 72 hrs by MTT assay relative to control; assay type: functional
[10] = system: MDA-MB-231; experiment: Induction of cell cycle arrest in human MDA-MB-231 cells assessed as accumulation of cells at G2 phase at 125 nM incubated for 12 hrs by flow cytometry analysis (reference value: 15.91%); assay type: functional
[11] = system: MDA-MB-231; experiment: Induction of apoptosis in human MDA-MB-231 cells assessed as increase in cleaved PARP expression measured after 24 hrs by Western blot analysis; assay type: functional, cell-based; conditions: dose 7.8-500 nM
[12] = system: MDA-MB-231; experiment: Antitumor activity against human MDA-MB-231 cells xenografted in BALB/c nude mouse assessed as reduction in RXRalpha protein expression at 25 mg/kg/day, ip administered for 15 days by immunohistochemical analysis; assay type: functional, organism-based; conditions: time 15.0 day
[13] = system: A549; experiment: Induction of apoptosis in human A549 cells assessed as dead cells at 125 nM incubated for 24 hrs by annexin V-FITC/PI staining based flow cytometry analysis (reference value: 0.75%); assay type: functional
[14] = system: MDA-MB-231; experiment: Induction of cell cycle arrest in human MDA-MB-231 cells assessed as accumulation of cells at G2 phase at 31.25 nM incubated for 12 hrs by flow cytometry analysis (reference value: 15.91%); assay type: functional
[15] = system: MDA-MB-231; experiment: Antiproliferative activity against human MDA-MB-231 cells assessed as inhibition of cell proliferation incubated for 72 hrs by MTT assay; assay type: functional, cell-based; conditions: MDA-MB-231, 72 h
[16] = system: A549; experiment: Induction of apoptosis in human A549 cells assessed as late apoptotic cells at 62.5 nM incubated for 24 hrs by annexin V-FITC/PI staining based flow cytometry analysis (reference value: 5.28%); assay type: functional
[17] = system: A549; experiment: Induction of cell cycle arrest in human A549 cells assessed as accumulation of cells at G1 phase at 125 nM incubated for 12 hrs by flow cytometry analysis (reference value: 59.57%); assay type: functional
[18] = Toxicity in BALB/c mouse xenografted with human MDA-MB-231 cells assessed as kidney damage at 25 mg/kg/day, ip administered for 15 days by H and E staining based analysis; assay type: organism-based; conditions: in vivo, 360 h, time 15 day
[19] = system: MDA-MB-231; experiment: Induction of cell cycle arrest in human MDA-MB-231 cells assessed as accumulation of cells at G1 phase at 62.5 nM incubated for 12 hrs by flow cytometry analysis (reference value: 43.2%); assay type: functional
[20] = system: A549; experiment: Induction of cell cycle arrest in human A549 cells assessed as accumulation of cells at S phase at 125 nM incubated for 12 hrs by flow cytometry analysis (reference value: 31.81%); assay type: functional
[21] = system: A549; experiment: Induction of apoptosis in human A549 cells assessed as live cells at 250 nM incubated for 24 hrs by annexin V-FITC/PI staining based flow cytometry analysis (reference value: 93.2%); assay type: functional
[22] = system: HeLa; experiment: Inhibition of MYC tagged pRXRalpha-FLAG tagged PLK1 (unknown origin) protein-protein interaction transfected in human HeLa cells at 500 nM incubated for 3 hrs by co-immunoprecipitation assay; assay type: cell-based
[23] = system: MDA-MB-231; experiment: Induction of apoptosis in human MDA-MB-231 cells assessed as late apoptotic cells at 125 nM incubated for 24 hrs by annexin V-FITC/PI staining based flow cytometry analysis (reference value: 5.93%); assay type: functional
[24] = system: MDA-MB-231; experiment: Induction of apoptosis in human MDA-MB-231 cells assessed as live cells at 125 nM incubated for 24 hrs by annexin V-FITC/PI staining based flow cytometry analysis (reference value: 91.3%); assay type: functional
[25] = target: T1, Retinoic acid receptor RXR-gamma (Homo sapiens) (UniProt P48443); experiment: Antagonist activity at RXRgamma (unknown origin) transfected in human HeLa cells at 31.25 uM incubated for 24 hrs by dual luciferase reporter assay; assay type: cell-based
T1 sequence (whole entry): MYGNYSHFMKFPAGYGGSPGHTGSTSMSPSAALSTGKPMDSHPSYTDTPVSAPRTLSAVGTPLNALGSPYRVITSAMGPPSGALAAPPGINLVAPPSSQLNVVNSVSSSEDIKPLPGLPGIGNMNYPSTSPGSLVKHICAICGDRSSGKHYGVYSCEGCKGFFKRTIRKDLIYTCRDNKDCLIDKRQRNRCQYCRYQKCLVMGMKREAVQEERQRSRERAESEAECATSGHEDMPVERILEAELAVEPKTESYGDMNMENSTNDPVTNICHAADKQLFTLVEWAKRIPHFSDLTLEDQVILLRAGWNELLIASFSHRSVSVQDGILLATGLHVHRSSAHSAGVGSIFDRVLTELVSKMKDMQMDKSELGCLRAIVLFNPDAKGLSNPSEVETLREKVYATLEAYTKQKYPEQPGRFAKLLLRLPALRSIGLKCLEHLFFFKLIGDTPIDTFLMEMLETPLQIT

In the case of `O=C(/C=C/c1ccccc1)Nc1cc(-c2ccnc(N3CCC(CO)CC3)c2)ccn1`, the “Ratio IC50” value [1] is reported as 12.56, the Activity [2] is reported as 42.77% and the Activity [3] is reported as 3.98%. For the same molecule, the Activity [4] was “Active”, the Activity [5] was 21.4% and the Activity [6] was “Active”. The IC50 [7] was 253 nM, the IC50 [8] was 128 nM and the Activity [9] was 42.38%. The Activity [10] was 85.88%, the Activity [11] was “Dose-Dependent Effect” and the Activity [12] was “Active”. The Activity [13] was 2.31%, the Activity [14] was 27.02% and the IC50 [15] was 16 nM. For the same molecule, the Activity [16] was 18.2%, the Activity [17] was 16.45% and the Activity [18] was “Non-Toxic”. For the same molecule, the Activity [19] was 1.81%, the Activity [20] was 37.15% and the Activity [21] was 44.9%. For the same molecule, the inhibition [22] was “Active”, the Activity [23] was 19.2% and the Activity [24] was 66.9%. The Activity [25] was “inactive”.
